Values quoted from earlier work, collected in US9364479B2, “Use of a receptor-type kinase modulator for treating polycystic kidney disease” (SYMPHONY EVOLUTION, INC., priority 2010, dated 2016).

Columns and labels:
PKD model = settings: in vivo; cited from earlier work
bpk mice = settings: cited from earlier work
bpk mice or PCK rat = settings: cited from earlier work

CCOc1cc2ncc(C#N)c(Nc3ccc(F)c(Cl)c3)c2cc1NC(=O)/C=C/CN(C)C [EKB-569]
cyst formation and renal function, in words (PKD model): effective in reducing cyst formation and maintaining normal renal function

CC#CC(=O)Nc1ccc2ncnc(Nc3cccc(Br)c3)c2c1 [EKI-785]
progression of PKD, in words (bpk mice): effective in preventing the progression of PKD

COc1cc(Nc2c(C#N)cnc3cc(OCCCN4CCN(C)CC4)c(OC)cc23)c(Cl)cc1Cl [SKI-606]
renal cyst formation and biliary duct abnormalities, in words (bpk mice or PCK rat): ameliorated renal cyst formation and biliary duct abnormalities
